Assay results published in patent US20210393651A1, “TARGETING THE ONCOGENIC TRANSCRIPTION FACTOR STAT5 WITH MINERALOCORTICOID ANALOGUES” (DANA-FARBER CANCER INSTITUTE, INC., priority 2018, published 2021).

How the values were obtained:
STAT5 [1] = assay: Immunoblot of STAT5 phosphorylation and nuclear localization in T47D cells after prolactin; format: cell-based; settings: for phosphorylation and nuclear localization of STAT5: 1 hour pre-treatment, 15 minutes after prolactin, cellular fractionation (FIG. 3B)
Procedure: (§1) FIG. 3A-FIG. 3C is a series of photographs of blots and bar charts showing that fludrocortisone inhibits STAT5 transcriptional function without affecting its phosphorylation or genome binding. FIG. 3A is a photograph of a blot wherein T47D cells were pretreated with vehicle control or fludrocortisone for 1 hour after which prolactin was added. Cells were harvested at the indicated time point and immunoblotting was performed. FIG. 3B is a photograph of a blot wherein T47D cells were pretreated with vehicle, fludrocortisone, or Jak inhibitor 1 for 1 hour after which prolactin was added. Cells were collected 15 minutes after prolactin stimulation and cellular fractionation and immunoblotting was performed. FIG. 3C is a photograph of a blot wherein T47D cells were pretreated with vehicle (DMSO) or fludrocortisone for 1 hour, then left untreated or stimulated with prolactin. 30 minutes later, cells were harvested and ChIP was performed to analyze STAT5 and pol II binding to the CISH promoter region. Error bars represent mean±SD for two independent experiments.
Nuclear and cytoplasmic fractionation was performed using the Nuclear Extract Kit (Active Motif, Carlsbad, Calif.). Immunoblots were performed using antibodies recognizing STAT5 (sc-482), MCR (sc-11412) and RNA polymerase II (pol II) (sc-9001) (all from Santa Cruz Biotechnology, Santa Cruz Calif.) and tyrosine-phosphorylated STAT5 (9131L) (from Cell Signaling Technology, Danvers, Mass.).
Next, it was considered whether fludrocortisone was inhibiting STAT5 function by blocking a key step in its activation. To address this, the effect of fludrocortisone on the kinetics of STAT5 phosphorylation following prolactin stimulation was evaluated. […] It was then evaluated whether nuclear translocation of activated STAT5 was affected by fludrocortisone treatment. T47D cells were either untreated or pretreated with fludrocortisone or JAK inhibitor 1, then left unstimulated or treated with prolactin, after which nuclear and cytoplasmic fractions were separated and analyzed for phosphorylated STAT5. […]

MCR = assay: MCR-dependent luciferase reporter in T47D cells; format: cell-based; settings: for activation of MCR, MCR-specific luciferase reporter: T47D cells (FIG. 2A)
Procedure: FIG. 2A-FIG. 2E is a series of bar graphs showing that the endogenous mineralocorticoid aldosterone inhibits STAT5 transcriptional function. FIG. 2A is a bar chart wherein T47D cells were transfected with an MCR-dependent luciferase reporter and a normalizing control, and normalized luciferase activity was determined after the indicated treatment. FIG. 2B is a bar chart wherein T47D cells transfected with an MCR-dependent luciferase reporter and a normalizing control were treated with the indicated dose of aldosterone, after which luciferase activity was determined. FIG. 2C is a bar chart wherein T47D-luc cells were pre-treated with the indicated concentration of aldosterone for 1 hour, then stimulated with prolactin (100 ng/ml) for 6 hours, after which luciferase activity was determined. FIG. 2D is a bar chart wherein T47D cells were pre-treated with vehicle control or aldosterone (0.01 μM) for 1 hour, after which prolactin (100 ng/ml) was added to induce STAT5 activation. RNA was harvested 1.5 hours later, and expression of STAT5 target genes was measured using quantitative RT-PCR and normalized to the expression of 18s RNA. FIG. 2E is a bar chart wherein T47D cells stably expressing a STAT5-dependent luciferase reporter gene were treated with 1 μM fludrocortisone at the indicated time points relative to prolactin stimulation. Luciferase activity was quantified by luminometry six hours following prolactin stimulation. Error bars represent mean±SD for triplicates.

[2] = tested on: STAT5 target genes AREG and CISH; assay: Expression of endogenous STAT5 target genes in breast cancer cell lines by quantitative RT-PCR; format: cell-based; settings: 1 hour pre-treatment; for expression of endogenous STAT5 target genes AREG and CISH: 1 μM, prolactin 100 ng/ml
Procedure: (§2) FIG. 1A is a bar chart wherein reporter cell lines were treated with the indicated doses of fludrocortisone for two hours, after which cytokines were added to activate the appropriate transcription factor. Luciferase activity was quantified by luminometry six hours later. FIG. 1B is a bar chart wherein T47D cells were transfected with one of two luciferase constructs regulated by a STAT5-dependent promoter (NCAM-luc or B-luc) together with a normalizing control, and the effect of fludrocortisone on prolactin-induced gene expression was determined. Jak inhibitor 1 (JAKinhib; 1 μM) was used as a positive control. Error bars represent mean±SD for two independent experiments. FIG. 1C is a series of bar charts wherein the indicated breast cancer cell lines were pre-treated with vehicle (dimethylsulfoxide (DMSO)) or fludrocortisone (1 μM) for 1 hour, then left untreated or stimulated with prolactin (100 ng/ml) to induce STAT5 activation. RNA was harvested 1.5 hours later, and expression of the indicated STAT5 target genes was measured using quantitative reverse transcription polymerase chain reaction (RT-PCR) and normalized to the expression of 18s. Error bars represent mean±SD for triplicates.
FIG. 2A-FIG. 2E is a series of bar graphs showing that the endogenous mineralocorticoid aldosterone inhibits STAT5 transcriptional function. FIG. 2A is a bar chart wherein T47D cells were transfected with an MCR-dependent luciferase reporter and a normalizing control, and normalized luciferase activity was determined after the indicated treatment. FIG. 2B is a bar chart wherein T47D cells transfected with an MCR-dependent luciferase reporter and a normalizing control were treated with the indicated dose of aldosterone, after which luciferase activity was determined. FIG. 2C is a bar chart wherein T47D-luc cells were pre-treated with the indicated concentration of aldosterone for 1 hour, then stimulated with prolactin (100 ng/ml) for 6 hours, after which luciferase activity was determined. […] Luciferase activity was quantified by luminometry six hours following prolactin stimulation. […]

STAT5 [3] = assay: STAT5-dependent luciferase reporter in T47D cells (NCAM2-luc/T47D), prolactin-stimulated; format: cell-based
Procedure: as §2
FIG. 2A-FIG. 2E is a series of bar graphs showing that the endogenous mineralocorticoid aldosterone inhibits STAT5 transcriptional function. FIG. 2A is a bar chart wherein T47D cells were transfected with an MCR-dependent luciferase reporter and a normalizing control, and normalized luciferase activity was determined after the indicated treatment. FIG. 2B is a bar chart wherein T47D cells transfected with an MCR-dependent luciferase reporter and a normalizing control were treated with the indicated dose of aldosterone, after which luciferase activity was determined. FIG. 2C is a bar chart wherein T47D-luc cells were pre-treated with the indicated concentration of aldosterone for 1 hour, then stimulated with prolactin (100 ng/ml) for 6 hours, after which luciferase activity was determined. […] RNA was harvested 1.5 hours later, and expression of STAT5 target genes was measured using quantitative RT-PCR and normalized to the expression of 18s RNA. […] Luciferase activity was quantified by luminometry six hours following prolactin stimulation. […]
T47D, ZR75 (American Type Culture Collection, Manassas Va.), and MDA-MB-468, were maintained in DMEM containing 10% FBS. […] STAT1, STAT3, STAT5 and NF-κB-dependent luciferase activities were measured in STAT-luc/2FTGH, STAT-luc/U3A, NCAM2-luc/T47D and NF-κB-luc/293 cells, respectively (Nelson et al., 2008 Blood 112, 5095-5102). Luciferase activity was quantified using the Bright-Glo Luciferase assay system (Promega, Madison, Wis.). […]

NF-κB = assay: NF-κB-dependent luciferase reporter (NF-κB-luc/293 cells); format: cell-based; settings: concentrations up to 33 μM
Procedure: as §2, with “FIG. 1C is a series of bar charts wherein the indicated breast cancer cell lines were pre-treated with vehicle (dimethylsulfoxide (DMSO)) or fludrocortisone (1 μM) for 1 hour, then left untreated or stimulated with prolactin (100 ng/ml) to induce STAT5 activation.” left out, “Error bars represent mean±SD for triplicates.” left out
(§3) T47D, ZR75 (American Type Culture Collection, Manassas Va.), and MDA-MB-468, were maintained in DMEM containing 10% FBS. […] STAT1, STAT3, STAT5 and NF-κB-dependent luciferase activities were measured in STAT-luc/2FTGH, STAT-luc/U3A, NCAM2-luc/T47D and NF-κB-luc/293 cells, respectively (Nelson et al., 2008 Blood 112, 5095-5102). Luciferase activity was quantified using the Bright-Glo Luciferase assay system (Promega, Madison, Wis.).

STAT3 = assay: STAT3-dependent luciferase reporter (STAT-luc/U3A cells); format: cell-based; settings: concentrations up to 33 μM
Procedure: as §2, with “FIG. 1C is a series of bar charts wherein the indicated breast cancer cell lines were pre-treated with vehicle (dimethylsulfoxide (DMSO)) or fludrocortisone (1 μM) for 1 hour, then left untreated or stimulated with prolactin (100 ng/ml) to induce STAT5 activation.” left out, “Error bars represent mean±SD for triplicates.” left out
as §3

STAT5 [4] = assay: STAT5 activity in hematopoietic cells; format: cell-based
STAT5 [5] = assay: Dual luciferase assay, parental T47D cells transfected with NCAM-luc or B-luc; format: cell-based; settings: prolactin-induced
Procedure: as §2, with “triplicates. […]” for “triplicates.”

STAT1 = assay: STAT1-dependent luciferase reporter (STAT-luc/2FTGH cells); format: cell-based; settings: concentrations up to 33 μM
Procedure: as §2, with “FIG. 1C is a series of bar charts wherein the indicated breast cancer cell lines were pre-treated with vehicle (dimethylsulfoxide (DMSO)) or fludrocortisone (1 μM) for 1 hour, then left untreated or stimulated with prolactin (100 ng/ml) to induce STAT5 activation.” left out, “Error bars represent mean±SD for triplicates.” left out
as §3

[6] = tested on: STAT5 and RNA polymerase II binding to CISH promoter; assay: ChIP of STAT5 and pol II binding to the CISH promoter region in T47D cells; format: cell-based; settings: 1 hour pre-treatment, 30 minutes after prolactin (FIG. 3C)
Procedure: as §1, with “FIG. 3C is a photograph of a blot wherein T47D cells were pretreated with vehicle (DMSO) or fludrocortisone for 1 hour, then left untreated or stimulated with prolactin. 30 minutes later, cells were harvested and ChIP was performed to analyze STAT5 and pol II binding to the CISH promoter region. Error bars represent mean±SD for two independent experiments.” left out
ChIP was performed as described (Nelson et al., 2004 J Biol Chem 279, 54724-54730). […] Quantitative PCR was performed in triplicate on ChIP product or input using SYBR Green PCR Master Mix (Applied Biosystems, Foster City, Calif.) and region-specific primers as follows: CISH, forward, 5′-CCCGCGGTTCTAGGAAGAC-3′ (SEQ ID NO: 1), reverse, 5′-CGAGCTGCTGCCTAATCCT-3′ (SEQ ID NO: 2); Rhodopsin, forward, 5′-[…]-3′ (SEQ ID NO: 3), reverse, 5′-[…]-3′ (SEQ ID NO: 4). Relative binding at the CISH promoter site was normalized to input and expressed as mean fold change relative to binding at the Rhodopsin site, which is a control DNA binding site known not to bind STAT5. […]

STAT5 [7] = assay: STAT5 function (test not described)
[8] = T47D reporter cells, 1 μM (FIG. 2E)

CC(C)(C)c1nc2c3cc[nH]c(=O)c3c3cc(F)ccc3c2[nH]1 [JAK inhibitor 1]
phosphorylation and nuclear localization of STAT5 (STAT5 [1]): complete inhibition

C[C@]12CCC(=O)C=C1CC[C@@H]1[C@@H]2[C@@H](O)C[C@]2(C=O)[C@@H](C(=O)CO)CC[C@@H]12 [aldosterone]
activation of MCR, MCR-specific luciferase reporter (MCR): activate MCR | dose dependence of MCR activation, MCR-dependent luciferase reporter (MCR; T47D cells, indicated doses (FIG. 2B)): activates MCR in a dose-dependent manner | expression of endogenous STAT5 target genes ([2]; T47D cells, 0.01 μM, prolactin 100 ng/ml (FIG. 2D)): inhibited | inhibition of STAT5-dependent reporter gene, dose response (STAT5 [3]; T47D-luc cells, 1 hour pre-treatment, prolactin 100 ng/ml for 6 hours (FIG. 2C)): dose-dependent inhibition

C[C@]12CCC(=O)C=C1CC[C@H]1[C@@H]3CC[C@](O)(C(=O)CO)[C@@]3(C)C[C@H](O)[C@@]12F [fludrocortisone, 9α-fluoro-11β,17α,21-trihydroxypregn-4-ene-3,20-dione]
effect on NF-κB-dependent luciferase expression (NF-κB): essentially no effect | effect on STAT3-dependent luciferase expression (STAT3): essentially no effect | dynamics of STAT5 activation (phosphorylation kinetics) following prolactin (STAT5 [1]; 1 hour pre-treatment (FIG. 3A)): no difference | phosphorylation and nuclear localization of STAT5 (STAT5 [1]): no effect | induced or constitutive STAT5 activity (STAT5 [4]): does not appear to inhibit | activation of MCR, MCR-specific luciferase reporter (MCR): activate MCR | STAT5-dependent luciferase activity, B-luc (BCL6) promoter (STAT5 [5]): reduced STAT5-dependent luciferase activity | STAT5-dependent luciferase activity, NCAM-luc promoter (STAT5 [5]): reduced STAT5-dependent luciferase activity | expression of endogenous STAT5 target genes AREG and CISH ([2]; T47D cells): effectively inhibits | expression of endogenous STAT5 target genes AREG and CISH ([2]; ZR75 cells): effectively inhibits | IC50 (STAT5 [3]; Homo sapiens, T47D cells stably expressing STAT5-dependent luciferase reporter, prolactin 100 ng/ml, read-out: IC50, inhibition of STAT5-dependent luciferase activity): ~100 nM | prolactin-stimulated STAT5 luciferase activity, compound added after prolactin (STAT5 [3]; [8]): some inhibitory effect | prolactin-stimulated STAT5 luciferase activity, compound added simultaneously with prolactin (STAT5 [3]; [8]): still effectively inhibit | effect on STAT1-dependent luciferase expression (STAT1): essentially no effect | STAT5 binding to CISH regulatory site (ChIP) [6]: no effect | prolactin-induced recruitment of RNA polymerase II (pol II) to CISH promoter site (ChIP) [6]: did inhibit

CC(=O)S[C@@H]1CC2=CC(=O)CC[C@]2(C)[C@H]2CC[C@@]3(C)[C@@H](CC[C@@]34CCC(=O)O4)[C@H]12 [spironolactone]
STAT5 function (STAT5 [7]): inhibit STAT5 function
